These are literature values, as cited in patent US5798350A, “Dopamine receptor ligands” (Allelix Biopharmaceuticals, Inc., priority 1996, dated 1998).

The data set relates to D4 receptor. To be noted: background, cited from earlier work.

As a reminder, the Ki is the equilibrium dissociation constant of an inhibitor or competing ligand from its target. For `CN1CCN(C2=Nc3cc(Cl)ccc3Oc3ccccc32)CC1` [isoloxapine], the “preference for binding the D4 receptor relative to the D2 receptor” value is reported as “about 10 fold”. Where the note is “read-out: Ki value (D4 affinity)”, the Ki is approximately 0.02 µM.
